pIC50: −log10 of the molar value. Where two headings read alike, the source gives them in different places.

Assay [1] concerns the target T1, ACCase (Lolium perenne, UniProt Z9B5O7SYH2).
T1 construct: native enzyme, young leaf extract, ammonium sulfate fraction, desalted; isoforms not separated
The experiment in a line: ATP-dependent incorporation of […]-bicarbonate into malonyl-CoA. The class given is biochemical. To be noted: S population; partially purified leaf extract; 5 mM acetyl-CoA, pH 8.3, 34°C; diclofop-acid per methods; read-out: I50.

The target in assay [2] is T1, ACCase. The assay is described as above. The assay is classed as biochemical. Particulars: R population extract, heterogeneous alleles; 5 mM acetyl-CoA, pH 8.3, 34°C; stated gain; read-out: I50.
The target in assay [3] is T2, ACCase (Lolium multiflorum, UniProt A0AAD8WR50).
T2 construct: gene QYE76_038327; native enzyme, young leaf extract, ammonium sulfate fraction, desalted; isoforms not separated
T2 sequence (A0AAD8WR50 1-2320): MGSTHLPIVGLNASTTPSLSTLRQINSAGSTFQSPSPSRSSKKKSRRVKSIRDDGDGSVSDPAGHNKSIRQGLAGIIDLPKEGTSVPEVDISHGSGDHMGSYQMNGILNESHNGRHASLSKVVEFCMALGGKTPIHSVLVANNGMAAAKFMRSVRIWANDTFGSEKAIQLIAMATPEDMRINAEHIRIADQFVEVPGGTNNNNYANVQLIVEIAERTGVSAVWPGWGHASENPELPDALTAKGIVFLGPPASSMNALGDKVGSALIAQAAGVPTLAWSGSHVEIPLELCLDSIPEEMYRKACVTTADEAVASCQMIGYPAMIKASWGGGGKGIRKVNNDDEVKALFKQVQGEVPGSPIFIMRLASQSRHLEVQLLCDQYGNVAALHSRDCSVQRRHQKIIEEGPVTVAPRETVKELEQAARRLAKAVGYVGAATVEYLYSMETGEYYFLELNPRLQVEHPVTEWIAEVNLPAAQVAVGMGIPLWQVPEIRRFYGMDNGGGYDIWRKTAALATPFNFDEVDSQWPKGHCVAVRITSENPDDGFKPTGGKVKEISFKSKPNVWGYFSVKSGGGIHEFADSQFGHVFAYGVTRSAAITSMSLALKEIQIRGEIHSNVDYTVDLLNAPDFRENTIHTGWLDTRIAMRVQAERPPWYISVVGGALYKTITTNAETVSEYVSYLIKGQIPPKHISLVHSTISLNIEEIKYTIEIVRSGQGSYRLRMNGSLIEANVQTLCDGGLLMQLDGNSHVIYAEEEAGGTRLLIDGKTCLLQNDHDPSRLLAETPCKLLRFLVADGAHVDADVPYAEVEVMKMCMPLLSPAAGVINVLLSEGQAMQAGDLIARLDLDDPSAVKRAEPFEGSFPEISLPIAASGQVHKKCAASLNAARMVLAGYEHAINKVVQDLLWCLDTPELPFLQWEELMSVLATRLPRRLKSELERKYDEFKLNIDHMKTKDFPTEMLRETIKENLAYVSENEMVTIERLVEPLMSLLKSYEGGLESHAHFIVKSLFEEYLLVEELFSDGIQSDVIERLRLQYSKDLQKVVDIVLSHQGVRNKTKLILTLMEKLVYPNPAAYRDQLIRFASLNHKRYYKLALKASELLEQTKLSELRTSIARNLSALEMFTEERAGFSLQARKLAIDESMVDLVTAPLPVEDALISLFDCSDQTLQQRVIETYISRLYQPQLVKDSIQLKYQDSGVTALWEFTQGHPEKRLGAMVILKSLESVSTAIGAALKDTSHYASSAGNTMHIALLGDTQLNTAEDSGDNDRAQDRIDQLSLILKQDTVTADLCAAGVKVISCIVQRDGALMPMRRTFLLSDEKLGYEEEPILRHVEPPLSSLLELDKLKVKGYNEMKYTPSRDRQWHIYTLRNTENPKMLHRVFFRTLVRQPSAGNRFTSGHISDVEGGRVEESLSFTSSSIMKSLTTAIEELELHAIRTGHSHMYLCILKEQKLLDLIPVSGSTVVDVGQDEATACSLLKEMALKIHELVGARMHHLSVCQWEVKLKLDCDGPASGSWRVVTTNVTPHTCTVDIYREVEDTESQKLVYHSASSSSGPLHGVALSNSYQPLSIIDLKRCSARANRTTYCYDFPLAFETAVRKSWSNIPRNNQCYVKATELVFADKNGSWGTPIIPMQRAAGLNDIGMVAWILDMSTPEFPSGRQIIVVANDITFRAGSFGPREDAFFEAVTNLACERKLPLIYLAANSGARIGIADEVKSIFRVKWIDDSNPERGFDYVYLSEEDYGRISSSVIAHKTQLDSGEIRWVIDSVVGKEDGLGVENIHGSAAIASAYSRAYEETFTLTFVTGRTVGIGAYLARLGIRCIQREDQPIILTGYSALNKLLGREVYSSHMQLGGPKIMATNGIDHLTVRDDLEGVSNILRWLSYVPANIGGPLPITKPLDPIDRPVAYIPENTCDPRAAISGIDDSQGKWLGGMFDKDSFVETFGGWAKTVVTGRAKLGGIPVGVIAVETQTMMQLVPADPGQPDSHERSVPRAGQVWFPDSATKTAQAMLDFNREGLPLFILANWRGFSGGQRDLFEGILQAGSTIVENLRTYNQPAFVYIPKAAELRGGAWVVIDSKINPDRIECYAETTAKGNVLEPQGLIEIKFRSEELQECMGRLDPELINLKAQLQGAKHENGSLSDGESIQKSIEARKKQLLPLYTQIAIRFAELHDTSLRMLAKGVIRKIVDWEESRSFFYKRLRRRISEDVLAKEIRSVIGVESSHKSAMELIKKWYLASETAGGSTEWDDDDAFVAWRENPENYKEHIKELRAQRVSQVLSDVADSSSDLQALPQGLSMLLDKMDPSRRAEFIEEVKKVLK
The description is as above. The class given is biochemical. To be noted: S population; partially purified leaf extract; 5 mM acetyl-CoA, pH 8.3, 34°C; diclofop-acid per methods; read-out: I50.

The subject of a further assay is EPSPS. The experiment in a line: phosphate release, EnzCheck phosphate assay, […] nm. To be noted: S population; partially purified leaf extract; pH 7.0; read-out: I50. The assay is classed as biochemical, Lolium perenne.

Regarding `CC(Oc1ccc(Oc2ccc(Cl)cc2Cl)cc1)C(=O)O` (stereo not shown) [diclofop-acid], the values for the pIC50 at ACCase [1], at ACCase [2] and at ACCase [3] were 5.21, 4.16 and 5.34, respectively.
Turning to `O=C(O)CNCP(=O)(O)O` [glyphosate], the pIC50 in the assay with EPSPS is 5.11.

The record behind these values is PMC7655540, “Accumulation of Target Gene Mutations Confers Multiple Resistance to ALS, ACCase, and EPSPS Inhibitors in Lolium Species in Chile” (Frontiers in Plant Science, 2020).
